Measurements as given in publication PMC11413854, “Reversible Control of Native GluN2B-Containing NMDA Receptors with Visible Light” (ACS Chemical Neuroscience, 2024).
Several values for one entry are separate records, joined by “and”; a condition that tells them apart may be missing. Equal values may be shown once.

Tested on: native NMDA currents of cultured cortical neurons
Experiment: Whole-cell patch-clamp of NMDA currents in cultured cortical neurons (DIV 6-8), spectral dependence of bound OptoNAM-3
Assay type: cell-based, mouse
Conditions: for inhibition of NMDA currents in cortical neurons: 2 µM
Experimental: We then turned to native NMDA currents. We repeated these experiments on cultured cortical neurons at days in vitro [DIV] 6–8, a stage at which GluN2B-containing NMDARs form the major population of neuronal NMDARs.[48] On cortical neurons, 2 μM OptoNAM-3 induced 70% inhibition of NMDA-induced currents in the dark. The lower inhibitory effect of trans-OptoNAM-3 on neurons compared to HEK cells is most likely due to the mixture of NMDAR subtypes expressed in neurons.[48] […] This effect is furthermore partially reversible thanks to the use of 550 nm light.
Mice were housed in the IBENS rodent central facility duly accredited by the French Ministry of Agriculture. All experiments were performed in compliance with French and European regulations on care and protection of laboratory animals (EU Directive 2010/63, French Law 2013–118, February 6, 2013), and were approved by local ethics committees and by the French Ministry of Research and Innovation (authorization numbers #05137.02, APAFIS #28867-2020121814485893). Dissociated cultures of cortical neurons were prepared from mouse embryos at E18 as described previously.[84] After removing meninges, cortices were placed in ice-cold HBSS solution. Cell dissociation was performed individually for cortices of each embryo. Cortices were incubated in 2.5% trypsin at 37 °C for 7 min, rinsed three times with 37 °C phosphate buffer saline, and finally suspended in plating medium (Neurobasal Medium, supplemented with 0.5 mM L-glutamine, 1% B27 supplement, and penicillin/streptomycin). The neurons were further dissociated by trituration, and cells were plated on poly-D-lysine coated coverslips in 24-well culture dishes at a density of 3 × 10^5 cells per well for the excitotoxicity test and that of 1 × 10^5 cells per well for patch clamp experiments. Cultures were incubated at 37 °C in a humidified atmosphere of 5% CO2. Cells were fed by changing 1/2 medium to fresh Neurobasal medium every 4 days. For the excitotoxicity experiments, after 5 days in vitro, growth of non-neuronal cells was halted by a 24 h exposure to FDX ([…] 5-fluoro-2′-deoxyuridine). The cultures were used for experiments after 6 to 14 days in vitro (DIV6–8 for patch clamp experiments and DIV14 for excitotoxicity tests).
Whole-cell patch-clamp recordings on neurons were performed 6 to 8 days after the culturing step (DIV 6–8) using the same recording conditions as for HEK cells. Recordings were performed at a holding potential of −60 mV and at room temperature. Currents were elicited by NMDA (300 μM) and D-serine (50 μM) to specifically activate NMDARs.
OptoNAM-3 was perfused in the dark onto the patched neuron (Figure 5A–C). […] Stopping perfusion ensures that trans-OptoNAM coming from the perfusion tube […] with the wavelength PSS during the illumination procedure.
OptoNAM-3 was perfused in the dark onto the patched neuron (Figures 4G,H and 5F,H). […] Then, wavelengths from 435 to 580 nm were applied and the inhibition recovery was monitored.
For the trans to cis and cis to trans isomerization study in the binding site (Figure 5C,H respectively), we decided to normalize (scale) the inhibition values of OptoNAM-3 at different wavelengths by the inhibition induced by OptoNAM-3 at 365 nm and in the dark since these two conditions represent respectively the minimum and maximum of the inhibition. We followed this equation: [drawing 2] where m ∈ [r365,rdark] is the measurement (inhibition) to be scaled, r365 and rdark correspond to the minimum (365 nm state inhibition) and maximum (dark state inhibition) of the measurement, respectively, and t365 and tdark represent the minimum and maximum of the range (OptoNAM-3 365 nm PSS and dark PSS mean inhibition). To reduce the decreasing effect of normalization onto SEM, the SEMs represented in the figures were calculated with the data injected in the first part of the equation ( [drawing 3] ). […]

Structure (SMILES): c1ccc(/N=N/c2ccc(CCNc3ccncc3)cc2)cc1 [OptoNAM-3, (E)-N-(4-(Phenyldiazenyl)phenethyl)pyridin-4-amine]
- inhibition of NMDA currents in cortical neurons (365 nm irradiation on the cell (Fig 5C)): 27% ± 2%
- inhibition of NMDA currents in cortical neurons (550 nm illumination from UV state (Fig 4H)): 52% ± 3% and 52.150%
- inhibition of NMDA currents in cortical neurons (550 nm post 365 nm illumination (Fig 5H)): 55% ± 4%
- inhibition of NMDA currents in cortical neurons (dark, NMDA 300 µM + D-serine 50 µM): 70% ± 3% and 70.580%
- inhibition of NMDA currents in cortical neurons (under 365 nm illumination (Fig 4H)): 25% ± 4% and 25.090%
- proportion of cis isomer, bound OptoNAM-3 365 nm PSS (365 nm on the cell, calculated from inhibition): ~90%
- proportion of cis isomer, bound OptoNAM-3 (460 nm light from dark state, calculated from inhibition): ~68%
- trans-to-cis isomerization in the binding site (550 and 580 nm applied from the dark state): did not induce visible trans-to-cis isomerization
- % Inhibition (normalized), mean (Figure 5C series (from dark PSS), 365 nm): 27.607%
- % Inhibition (normalized), mean (Figure 5C series (from dark PSS), 435 nm): 44.741%
- % Inhibition (normalized), mean (Figure 5C series (from dark PSS), 460 nm): 50.648%
- % Inhibition (normalized), mean (Figure 5C series (from dark PSS), 490 nm): 64.437%
- % Inhibition (normalized), mean (Figure 5C series (from dark PSS), 525 nm): 71.178%
- % Inhibition (normalized), mean (Figure 5C series (from dark PSS), 550 nm): 73.370%
- % Inhibition (normalized), mean (Figure 5C series (from dark PSS), 580 nm): 73.446%
- % Inhibition (normalized), mean (Figure 5C series, dark): 73.585%
- % Inhibition (normalized), mean (Figure 5H series (from 365 nm PSS), 365 nm): 27.795%
- % Inhibition (normalized), mean (Figure 5H series (from 365 nm PSS), 435 nm): 27.982%
- % Inhibition (normalized), mean (Figure 5H series (from 365 nm PSS), 460 nm): 29.032%
- % Inhibition (normalized), mean (Figure 5H series (from 365 nm PSS), 490 nm): 44.081%
- % Inhibition (normalized), mean (Figure 5H series (from 365 nm PSS), 525 nm): 43.503%
- % Inhibition (normalized), mean (Figure 5H series (from 365 nm PSS), 550 nm): 54.910%
- % Inhibition (normalized), mean (Figure 5H series (from 365 nm PSS), 580 nm): 47.001%
- % Inhibition (normalized), mean (Figure 5H series, dark): 73.111%
- proportion of trans isomer, bound OptoNAM-3 (at 365, 435 and 460 nm post 365 nm illumination, calculated from inhibition): ~10%
